Experiment [1] has as its system PC3 cells. Kind of experiment: MTT assay. It counts as cell-based. The procedure:
PC3 cells were plated in triplicates in 24-well plates. Cells were allowed to attach overnight. […] Cells were counted daily for a total of 5 days. Fresh media and inhibitor were added every 2 days. The means of triplicate determinations were plotted over time. The experiment was repeated twice and results from one representative experiment are shown. […] PC3 cells were seeded into 96-well plates (3000 cells/well) and were then incubated in media containing 0.3–100 µM inhibitors for 72 h. MTT solution was added to each well and incubated for 4 h. Optical density was read at 570 nm to determine cell viability. The IC50 was determined as the mean of two independent experiments for each compound. C. […] Cell cycle distribution was determined by flow cytometry after propidium iodide labeling of fixed cells. Statistical significance was determined by unpaired t-test and is indicated. **, p<0.01; ***, p<0.001. […] The label 1-NA-PP1 is taken from panels A and C, where it is the only substance named in the picture.
PC3 cells were seeded into 96-well plates (3000 cells/well) and allowed to attach overnight. Cells were then incubated in media containing […] inhibitors for 72 h. […] The plate was mix by shaking for 5 min and the optical density was determined at 570 nm.
Background: Tetrazolium dyes change colour on reduction, which living cells bring about.

The test system of experiment [2] is DU145 cells infected with Adv-PKD1 or Adv-PKD3. In kind it is cell-based.
Experimental: DU145 cells were infected with null, PKD1, and PKD3 adenoviruses (Adv-null, Adv-PKD1, and Adv-PKD3) at 100 MOI. […] The number of cells that migrated was determined by cell counts in 6 fields. Percentage migration was calculated as the percent of the Adv-null treated with vehicle DMSO (set to 100%). The experiment was repeated three times and data from a representative experiment are shown.

The IC50 is the midpoint of a concentration-inhibition curve.

The structures appear in SMILES notation. Like-named read-outs stand apart in the source and are kept apart here.

Regarding `CC(C)(C)n1nc(-c2cccc3ccccc23)c2c(N)ncnc21` [Compound 1-NA-PP1, 1-(t-Butyl)-3-(naphthalen-1-yl)-1H-pyrazolo[3,4-d]pyrimidin-4-amine], the IC50 in experiment [1] (Homo sapiens, PC-3, 72 h, read-out: IC50 for cell death (MTT), PC3 cells, 72 h) is 23.3 ± 5.7 µM; in experiment [1] (read-out: IC50 for cell death (MTT), PC3 cells, 72 h), ~20 µM. Besides, the “effect of PKD1 or PKD3 overexpression on inhibition of cell migration” value in experiment [2] is recorded as “did not affect”.

For the origin of these results see paper PMC3781056, “New Pyrazolopyrimidine Inhibitors of Protein Kinase D as Potent Anticancer Agents for Prostate Cancer Cells” (PLoS ONE, 2013).
